How the values were obtained:
speedwell = experiment: Test D postemergence; assay type: in vivo, Veronica persica; conditions: scale 0 to 100
Source text: (§1) Seeds of plant species selected from bluegrass (annual bluegrass, Poa annua), blackgrass (Alopecurus myosuroides), canarygrass (Phalaris minor), chickweed (common chickweed, Stellaria media), galium (catchweed bedstraw, Galium aparine), bromegrass, down (downy bromegrass, Bromus tectorum), Russian thistle (Salsola kali), field poppy (Papaver rhoeas), field violet (Viola arvensis), foxtail, green (green foxtail, Setaria viridis), deadnettle (henbit deadnettle, Lamium amplexicaule), ryegrass, Ital. (Italian ryegrass, Lolium multiflorum), kochia (Kochia scoparia), lambsquarters (Chenopodium album), oilseed rape (Brassica napus), pigweed (Amaranthus retroflexus), chamomile (scentless chamomile, Matricaria inodora), speedwell (bird's-eye speedwell, Veronica persica), barley, spring (spring barley, Hordeum vulgare), wheat, spring (spring wheat, Triticum aestivum), buckwheat, wild (wild buckwheat, Polygonum convolvulus), wild mustard (Sinapis arvensis), oat, wild (wild oat, Avena fatua), radish, wild (wild radish, Raphanus raphanistrum), […]), barley, winter (winter barley, Hordeum vulgare), and wheat, winter (winter wheat, Triticum aestivum) were planted into a silt loam soil and treated preemergence with test chemicals formulated in a non-phytotoxic solvent mixture which included a surfactant. At the same time, these species were planted in pots containing Sunshine Redi-Earth® planting medium comprising spaghnum peat moss, vermiculite, starter nutrients and dolomitic limestone and treated with postemergence applications of the test chemicals formulated in the same manner. Plants ranged in height from 2 to 18 cm (1- to 4-leaf stage). Treated plants and controls were maintained in a controlled growth environment for 14 to 21 d after which time all species were compared to controls and visually evaluated. […] A dash (-) response means no test result.

pigweed = experiment: Test D preemergence; assay type: in vivo, Amaranthus retroflexus; conditions: for Plant response rating (0 to 100), Pigweed: 16 g ai/ha, 0 is no effect, 100 is complete control; for Plant response rating: Pigweed: scale 0 to 100
Source text: as §1

wild mustard [1] = experiment: Test D postemergence; assay type: in vivo, Sinapis arvensis; conditions: scale 0 to 100
Source text: as §1

velvetleaf = experiment: Test C preemergence; assay type: in vivo, Abutilon theophrasti; conditions: for Velvetleaf plant response rating (0 to 100): Preemergence, visual rating after 13 to 15 d; for Plant response rating (scale of 0 to 100 where 0 is no effect and 100 is complete control): Velvetleaf, preemergence, 250 g ai/ha
Source text: (§2) Seeds of plant species selected from blackgrass (Alopecurus myosuroides), ryegrass, Italian (Italian ryegrass, Lolium multiflorum), wheat (winter wheat, Triticum aestivum), galium (catchweed bedstraw, Galium aparine), corn (Zea mays), crabgrass, large (large crabgrass, Digitaria sanguinalis), foxtail, giant, (giant foxtail, Setaria faberii), johnsongrass (Sorghum halepense), lambsquarters (Chenopodium album), morningglory (Ipomoea coccinea), nutsedge, yellow (yellow nutsedge, Cyperus esculentus), pigweed (Amaranthus retroflexus), ragweed (common ragweed, Ambrosia elatior), soybean (Glycine max), barnyardgrass (Echinochloa crus-galli), oilseed rape (Brassica napus), waterhemp (common waterhemp, Amaranthus rudis), and velvetleaf (Abutilon theophrasti) were planted into a blend of loam soil and sand and treated preemergence with test chemicals formulated in a non-phytotoxic solvent mixture which included a surfactant. At the same time, plants selected from these crop and weed species and also chickweed (common chickweed, Stellaria media), oat, wild (wild oat, Avena fatua), and kochia (Kochia scoparia), were planted in pots containing Sunshine Redi-Earth® planting medium comprising spaghnum peat moss, vermiculite, starter nutrients and dolomitic limestone and treated with postemergence applications of test chemicals formulated in the same manner. Plants ranged in height from 2 to 18 cm (1- to 4-leaf stage) for postemergence treatments. […] A dash (-) response means no test result.

bromegrass, down [2] = experiment: Test D preemergence; assay type: in vivo, Bromus tectorum; conditions: for Plant response rating (0 to 100), Bromegrass, Down: 16 g ai/ha, 0 is no effect, 100 is complete control; for Plant response rating: Bromegrass, Down: scale 0 to 100
Source text: as §1

bromegrass, down [3] = experiment: Test D postemergence; assay type: in vivo, Bromus tectorum; conditions: scale 0 to 100
Source text: as §1

barley, spring = experiment: Test D preemergence; assay type: in vivo, Hordeum vulgare; conditions: for Plant response rating (0 to 100), Barley, Spring: 16 g ai/ha, 0 is no effect, 100 is complete control; for Plant response rating: Barley, Spring: scale 0 to 100
Source text: as §1

barley, winter = experiment: Test D preemergence; assay type: in vivo, Hordeum vulgare; conditions: for Plant response rating (0 to 100), Barley, Winter: 16 g ai/ha, 0 is no effect, 100 is complete control; for Plant response rating: Barley, Winter: scale 0 to 100
Source text: as §1

lambsquarters = experiment: Test C preemergence; assay type: in vivo, Chenopodium album; conditions: for Plant response rating (scale of 0 to 100 where 0 is no effect and 100 is complete control): Lambsquarters, preemergence; for Lambsquarters plant response rating (0 to 100): Preemergence, visual rating after 13 to 15 d
Source text: as §2

morningglory = experiment: Test C preemergence; assay type: in vivo, Ipomoea coccinea; conditions: for Plant response rating (scale of 0 to 100 where 0 is no effect and 100 is complete control): Morningglory, preemergence; for Morningglory plant response rating (0 to 100): Preemergence, visual rating after 13 to 15 d
Source text: as §2

wild mustard [4] = experiment: Test D preemergence; assay type: in vivo, Sinapis arvensis; conditions: for Plant response rating (0 to 100), Mustard, Wild: 16 g ai/ha, 0 is no effect, 100 is complete control; for Plant response rating: Mustard, Wild: scale 0 to 100
Source text: as §1

chamomile = experiment: Test D postemergence; assay type: in vivo, Matricaria inodora; conditions: scale 0 to 100
Source text: as §1

oat, wild = experiment: Test D postemergence; assay type: in vivo, Avena fatua; conditions: scale 0 to 100
Source text: as §1

Fc1ccc(-c2nc(OCC(F)(F)F)n(Cc3ccnc(C(F)(F)F)c3)n2)cc1 [Compound 30]
Plant response rating: Speedwell (speedwell; 16 g ai/ha): 100 | Plant response rating: Speedwell (speedwell; 31 g ai/ha): 100 | Plant response rating: Speedwell (speedwell; 62 g ai/ha): 100 | Plant response rating: Speedwell (speedwell; 125 g ai/ha): 100 | Plant response rating (0 to 100), Pigweed (pigweed): 100 | Plant response rating: Pigweed (pigweed; 62 g ai/ha): 100 | Plant response rating: Pigweed (pigweed; 125 g ai/ha): 100 | Plant response rating: Mustard, Wild (wild mustard [1]; 16 g ai/ha): 90 | Plant response rating: Mustard, Wild (wild mustard [1]; 31 g ai/ha): 100 | Plant response rating: Mustard, Wild (wild mustard [1]; 62 g ai/ha): 100 | Plant response rating: Mustard, Wild (wild mustard [1]; 125 g ai/ha): 100 | Velvetleaf plant response rating (0 to 100) (velvetleaf; 31 g ai/ha): 20 | Velvetleaf plant response rating (0 to 100) (velvetleaf; 62 g ai/ha): 70 | Plant response rating (scale of 0 to 100 where 0 is no effect and 100 is complete control) (velvetleaf): 85 | Plant response rating (0 to 100), Bromegrass, Down (bromegrass, down [2]): 35 | Plant response rating: Bromegrass, Down (bromegrass, down [2]; 31 g ai/ha): 40 | Plant response rating: Bromegrass, Down (bromegrass, down [2]; 62 g ai/ha): 55 | Plant response rating: Bromegrass, Down (bromegrass, down [2]; 125 g ai/ha): 70 | Plant response rating: Bromegrass, Down (bromegrass, down [3]; 16 g ai/ha): 30 | Plant response rating: Bromegrass, Down (bromegrass, down [3]; 31 g ai/ha): 45 | Plant response rating: Bromegrass, Down (bromegrass, down [3]; 62 g ai/ha): 65 | Plant response rating: Bromegrass, Down (bromegrass, down [3]; 125 g ai/ha): 65 | Plant response rating (0 to 100), Barley, Spring (barley, spring): 30 | Plant response rating: Barley, Spring (barley, spring; 31 g ai/ha): 40 | Plant response rating: Barley, Spring (barley, spring; 62 g ai/ha): 35 | Plant response rating: Barley, Spring (barley, spring; 125 g ai/ha): 45 | Plant response rating (0 to 100), Barley, Winter (barley, winter): 20 | Plant response rating: Barley, Winter (barley, winter; 31 g ai/ha): 25 | Plant response rating: Barley, Winter (barley, winter; 62 g ai/ha): 30 | Plant response rating: Barley, Winter (barley, winter; 125 g ai/ha): 40 | Plant response rating (scale of 0 to 100 where 0 is no effect and 100 is complete control) (lambsquarters; 125 g ai/ha): 95 | Plant response rating (scale of 0 to 100 where 0 is no effect and 100 is complete control) (lambsquarters; 250 g ai/ha): 98 | Lambsquarters plant response rating (0 to 100) (lambsquarters; 31 g ai/ha): 98 | Lambsquarters plant response rating (0 to 100) (lambsquarters; 62 g ai/ha): 98 | Plant response rating (scale of 0 to 100 where 0 is no effect and 100 is complete control) (morningglory; 125 g ai/ha): 60 | Plant response rating (scale of 0 to 100 where 0 is no effect and 100 is complete control) (morningglory; 250 g ai/ha): 90 | Morningglory plant response rating (0 to 100) (morningglory; 31 g ai/ha): 35 | Morningglory plant response rating (0 to 100) (morningglory; 62 g ai/ha): 35 | Plant response rating (0 to 100), Mustard, Wild (wild mustard [4]): 90 | Plant response rating: Mustard, Wild (wild mustard [4]; 62 g ai/ha): 100 | Plant response rating: Mustard, Wild (wild mustard [4]; 125 g ai/ha): 100 | Plant response rating: Chamomile (chamomile; 16 g ai/ha): 20 | Plant response rating: Chamomile (chamomile; 31 g ai/ha): 30 | Plant response rating: Chamomile (chamomile; 62 g ai/ha): 40 | Plant response rating: Chamomile (chamomile; 125 g ai/ha): 70 | Plant response rating: Oat, Wild (oat, wild; 16 g ai/ha): 40 | Plant response rating: Oat, Wild (oat, wild; 31 g ai/ha): 40 | Plant response rating: Oat, Wild (oat, wild; 62 g ai/ha): 65 | Plant response rating: Oat, Wild (oat, wild; 125 g ai/ha): 75

FC(F)(F)COc1nc(-c2ccc(Cl)cc2)nn1Cc1ccnc(C(F)(F)F)c1 [Compound 31]
Plant response rating: Speedwell (speedwell; 16 g ai/ha): 95 | Plant response rating: Speedwell (speedwell; 31 g ai/ha): 90 | Plant response rating: Speedwell (speedwell; 62 g ai/ha): 100 | Plant response rating: Speedwell (speedwell; 125 g ai/ha): 100 | Plant response rating (0 to 100), Pigweed (pigweed): 100 | Plant response rating: Pigweed (pigweed; 62 g ai/ha): 100 | Plant response rating: Pigweed (pigweed; 125 g ai/ha): 100 | Plant response rating: Mustard, Wild (wild mustard [1]; 16 g ai/ha): 100 | Plant response rating: Mustard, Wild (wild mustard [1]; 31 g ai/ha): 100 | Plant response rating: Mustard, Wild (wild mustard [1]; 62 g ai/ha): 100 | Plant response rating: Mustard, Wild (wild mustard [1]; 125 g ai/ha): 100 | Velvetleaf plant response rating (0 to 100) (velvetleaf; 31 g ai/ha): 35 | Velvetleaf plant response rating (0 to 100) (velvetleaf; 62 g ai/ha): 55 | Plant response rating (scale of 0 to 100 where 0 is no effect and 100 is complete control) (velvetleaf): 80 | Plant response rating (0 to 100), Bromegrass, Down (bromegrass, down [2]): 25 | Plant response rating: Bromegrass, Down (bromegrass, down [2]; 31 g ai/ha): 25 | Plant response rating: Bromegrass, Down (bromegrass, down [2]; 62 g ai/ha): 50 | Plant response rating: Bromegrass, Down (bromegrass, down [2]; 125 g ai/ha): 55 | Plant response rating: Bromegrass, Down (bromegrass, down [3]; 16 g ai/ha): 25 | Plant response rating: Bromegrass, Down (bromegrass, down [3]; 31 g ai/ha): 45 | Plant response rating: Bromegrass, Down (bromegrass, down [3]; 62 g ai/ha): 50 | Plant response rating: Bromegrass, Down (bromegrass, down [3]; 125 g ai/ha): 70 | Plant response rating (0 to 100), Barley, Spring (barley, spring): 35 | Plant response rating: Barley, Spring (barley, spring; 31 g ai/ha): 45 | Plant response rating: Barley, Spring (barley, spring; 62 g ai/ha): 45 | Plant response rating: Barley, Spring (barley, spring; 125 g ai/ha): 50 | Plant response rating (0 to 100), Barley, Winter (barley, winter): 25 | Plant response rating: Barley, Winter (barley, winter; 31 g ai/ha): 35 | Plant response rating: Barley, Winter (barley, winter; 62 g ai/ha): 40 | Plant response rating: Barley, Winter (barley, winter; 125 g ai/ha): 50 | Plant response rating (scale of 0 to 100 where 0 is no effect and 100 is complete control) (lambsquarters; 125 g ai/ha): 100 | Plant response rating (scale of 0 to 100 where 0 is no effect and 100 is complete control) (lambsquarters; 250 g ai/ha): 98 | Lambsquarters plant response rating (0 to 100) (lambsquarters; 31 g ai/ha): 90 | Lambsquarters plant response rating (0 to 100) (lambsquarters; 62 g ai/ha): 100 | Plant response rating (scale of 0 to 100 where 0 is no effect and 100 is complete control) (morningglory; 125 g ai/ha): 55 | Plant response rating (scale of 0 to 100 where 0 is no effect and 100 is complete control) (morningglory; 250 g ai/ha): 65 | Morningglory plant response rating (0 to 100) (morningglory; 31 g ai/ha): 25 | Morningglory plant response rating (0 to 100) (morningglory; 62 g ai/ha): 45 | Plant response rating (0 to 100), Mustard, Wild (wild mustard [4]): 100 | Plant response rating: Mustard, Wild (wild mustard [4]; 62 g ai/ha): 100 | Plant response rating: Mustard, Wild (wild mustard [4]; 125 g ai/ha): 100 | Plant response rating: Chamomile (chamomile; 16 g ai/ha): 20 | Plant response rating: Chamomile (chamomile; 31 g ai/ha): 35 | Plant response rating: Chamomile (chamomile; 62 g ai/ha): 65 | Plant response rating: Chamomile (chamomile; 125 g ai/ha): 80 | Plant response rating: Oat, Wild (oat, wild; 16 g ai/ha): 35 | Plant response rating: Oat, Wild (oat, wild; 31 g ai/ha): 45 | Plant response rating: Oat, Wild (oat, wild; 62 g ai/ha): 70 | Plant response rating: Oat, Wild (oat, wild; 125 g ai/ha): 75
